# Source: patent publication US4301065A, “Novel polypeptides having thymic activity or an antagonistic activity and processes for their synthesis” (Agence Nationale de Valorisation de la Recherche (ANVAR), priority 1977, dated 1981)
# Square brackets hold non-standard residues; d marks the D form. Ends that are not written are not given here. Peptide text beside a SMILES is read from it. pGlu = O=C1CC[C@@H](C(=O)O)N1; βAla = NCCC(=O)O
# Legend:
# thymectomised mice [1] = test: Kinetics of the activity in the serum after injection of peptide without carboxymethyl cellulose; format: in vivo; details: 1 ng of polypeptide injected into thymectomised mice; active serum dilutions against time; FIGS. 1 to 3
# Excerpt: These kinetics have also been established for active products, but without any delay action, by way of comparison. The results of these tests have been established in the form of curves in FIGS. 1, 2 and 3 of the accompanying drawings.
# [2] = system: cells of the spleen forming rosettes (RFC); test: Rosette test in vitro (thymic activity); format: cell-based, adult C 57/B1 6 mice; details: for Activity in the rosette test (control peptides): in vitro, control peptides of similar molecular weight
# Experimental: The thymic activity of the polypeptide is established by incubation in a hemolysis tube with 3×10^6 cells of the spleen originating from adult C 57/B1 6 mice (supplied by the Centre d'Elevage des Animaux de Laboratoire of C.N.R.S. (45 Orleans, La Source), thymectomised 10 to 20 days previously. The thymectomy method is described by M. Dardenne and J. F. Bach in Immunology, 25, 343 (1973) on page 344. The contents of this article are incorporated herein by reference.
# The incubation is carried out for 90 minutes at 37° C. in the presence of azathioprine (Az) at a concentration of 10 μg/ml.
# On completion of the incubation, 12×10^6 red cells from sheep's blood (SRBC) are added to the cells in the test specimen. The cells in the specimen are centrifuged for 6 minutes at 200 g and carefully brought gently into suspension by rotation on a roller (diameter 10 cm) at a low speed (10 r.p.m.). The RFC are counted in a hematocytometer.
# (1) Activity in vitro in the rosette test.
# antibodies = test: Bonding with the antibodies; format: binding; set-up: key: +: the peptide is bonded; -: is not bonded to the antibodies
# Excerpt: The suitability of the peptides for being bonded to the antibodies is indicated by the + and - symbols, which respectively signify that the peptide is bonded or is not bonded to the antibodies.
# thymectomised mice [3] = test: Activity in vivo: study of the serum after injection of peptide absorbed on carboxymethyl cellulose
# Experimental: The peptides active in vitro were also checked in tests carried out in vivo. Injected into 6 weeks old thymectomised mice and used 8 weeks after the thymectomy, the peptides produce the appearance at the 15th minute in the serum of a biological activity conferring the sensitivity to the azothioprine of the spleen cells forming rosettes. […] (2) Activity in vivo (study of the serum 2 hours and 4 hours after injection into thymectomised mice in different quantities (0.1, 1 or 10 ng) of peptide absorbed on carboxymethyl cellulose). The results of the tests in vivo on the serum and on the spleen, set out in Tables II, III and IV, were established by the procedure as previously indicated.
# [4] = system: rosette-forming cells of the spleen of thymectomised mice; test: Test in vivo on the spleen: correction of the reactivity of rosette-forming spleen cells to azathioprine; details: Table IV, quantity injected 0,1 ng, individual values
# Experimental: (3) Correction of the abnormal reactivity of the cells forming the rosettes of the spleen with azathioprine in thymectomised mice 24 hours after injecting the peptide (0.1, 1 and 10 ng) bonded to the carboxymethyl cellulose.
# The tests on the spleen were carried out by determining the quantity of azathioprine which is necessary for inhibiting the rosette-forming cells of the spleen of thymectomised mice after an established time (24 hours and possibly also 48 hours) after the injection of an established quantity of polypeptide (0.1, 1 or 10 ng).
compound,measurement,setting,value
"CC(=O)NCCCC[C@H](NC(=O)[C@H](C)NC(=O)[C@@H]1CCC(=O)N1)C(=O)N[C@@H](CO)C(=O)N[C@@H](CCC(N)=O)C(=O)NCC(=O)NCC(=O)N[C@@H](CO)C(=O)N[C@@H](CC(N)=O)C(=O)O [Peptide 62, PyroGlu-Ala-Lys(Ac)-Ser-Gln-Gly-Gly-Ser-Asn] ([pGlu]AK(Ac)SQGGSN-OH)",Time of the activity peak in the serum after injection,thymectomised mice [1],~45 min
"C[C@H](NC(=O)[C@@H]1CCC(=O)N1)C(=O)N[C@@H](CCCCN)C(=O)N[C@@H](CO)C(=O)N[C@@H](CCC(N)=O)C(=O)NCC(=O)NCC(=O)N[C@@H](CO)C(=O)NCCC(N)=O [Peptide 86, PyroGlu-Ala-Lys-Ser-Gln-Gly-Gly-Ser-β-Ala-NH2] ([pGlu]AKSQGGS[βAla]-NH2)",Activity in vitro,"[2]; Table I, rosette test",+ (active)
same,Active concentration (ng/ml) (test in vitro),"[2]; Table III, rosette test, azathioprine 10 μg/ml, 90 minutes at 37° C.",7.10^-3 ng/ml
same,Bonding with the antibodies,antibodies; Table I,-
same,Bonding with the antibodies,antibodies; Table IV,-
same,Activity in vivo,"thymectomised mice [3]; Table I, thymectomised mice",+ (active)
same,Active or inactive polypeptide (conclusion from Tables I to IV),thymectomised mice [3]; overall judgement of the tests in vitro and in vivo,active
same,Spleens (test in vivo) 24 hours after injection: Quantity of azathioprine,[4],12 µg
"C[C@H](NC(=O)[C@@H]1CCC(=O)N1)C(=O)N[C@@H](CCCCN)C(=O)N[C@@H](CO)C(=O)N[C@@H](CCC(N)=O)C(=O)N[C@H](C)C(=O)NCC(=O)N[C@@H](CO)C(=O)N[C@@H](CC(N)=O)C(=O)O [Peptide 89, PyroGlu-Ala-Lys-Ser-Gln-D-Ala-Gly-Ser-Asn] ([pGlu]AKSQ[dA]GSN-OH)",Time of the activity peak in the serum after injection,thymectomised mice [1],~60 min
Cn1cnc([N+](=O)[O-])c1Sc1ncnc2nc[nH]c12 [azathioprine],IC50,"[2]; Mus musculus, spleen cells coming from normal mice, read-out: minimal concentration of Az inhibiting 50% of the cells of the spleen forming rosettes (RFC)",1 µg/mL
angiotensine,Activity in the rosette test (control peptides),[2],inactive
"substance P (RPKPQQFFGLM; ends and bridges not checked; UniProt P20366 58-68, looked up) [control peptide of similar molecular weight]",Activity in the rosette test (control peptides),[2],inactive
